Results published in patent US20230145666A1, “REAL TIME ELECTRONIC CELL SENSING SYSTEMS AND APPLICATIONS FOR CELL-BASED ASSAYS” (Agilent Technologies, Inc., priority 2002, published 2023).
Read-outs that look alike come from different tables or passages of the source.

How the values were obtained:
Type in all cases: cell-based, rat
[1] = system: IgE-mediated RBL-2H3 mast cell activation; assay: Cell-substrate impedance assay: pharmacological inhibition of antigen-mediated mast cell activation; details: at peak response
Method: RBL-2H3 mast cells were sensitized with 100 ng/mL anti-DNP-IgE and then incubated with the indicated concentrations of the Bisindolylmaleimide 1 hour prior to addition of 100 ng/mL DNP-BSA. The impedance value indicated as Cell Index was monitored using a cell-substrate impedance monitoring system of the present invention.
The real-time cell-substrate impedance monitoring system comprises three components, an impedance analyzer, a device station, and one or more 16X microtiter devices. Microelectrode sensor arrays were fabricated on glass slides using lithographical microfabrication methods and the electrode-containing slides were assembled to plastic trays to form 16 electrode-containing wells. The device station of the system receives the 16X microtiter devices and is capable of electronically switching any one of the wells to the sensor (impedance) analyzer for impedance measurement. In operation, the devices with cells cultured in the wells are placed into a device station that is located inside an incubator. Electrical cables connect the device station to the sensor (impedance) analyzer. Under the impedance monitoring system’s software control, the impedance analyzer can automatically select wells to be measured and continuously conduct impedance measurements. The impedance data from the analyzer is transferred to a computer, analyzed and processed by integrated software.
To quantify cell status based on the measured cell-electrode impedance, a parameter termed Cell Index is derived, according to
where Rb (f) and Rcell (f) are the frequency dependent electrode resistances (a component of impedance) without cells or with cell present, respectively. N is the number of the frequency points at which the impedance is measured. Thus, Cell Index is a quantitative measure of the status of the cells in an electrode-containing well. Under the same physiological conditions, more cells attached on to the electrodes leads to larger Rcell (f) value, leading to a larger value for Cell Index. […]
20,000 RBL-2H3 cells were seeded per well of a 16X microtiter device and monitored by the impedance measuring system. […] The cell-electrode impedance was continuously measured and the corresponding, time dependent Cell-Index values were derived and recorded.
RBL-2H3 cells were seeded in a 16X microtiter plate device and pre-stimulated with anti-DNP-IgE were incubated for 1 hour with the indicated doses of the PKC-specific inhibitor Bisindolylmaleimide and subsequently treated with 100 ng/mL DNP-BSA (FIG. 17). The dose-dependent inhibition of RBL-2H3 mast cell activation by Bisindolylmaleimide can be monitored on the cell-substrate monitoring system in real-time. […]

[2] = system: RBL-2H3 mast cells; assay: Impedance monitoring of RBL-2H3 mast cell response to IgE and antigen; details: anti-DNP IgE sensitized, 100 ng/mL DNP-BSA (FIG. 14)
Method: FIG. 13 is a plot of cell index recording indicating mast cell responses to IgE in the presence or absence of antigen. 20,000 RBL-2H3 mast cells were seeded in each well of a 16× device. Cells were allowed to adhere and grow for 22 hours while being recorded. At 22 hours the cells were treated with either 1 microgram/mL non-specific mouse IgG or 1 microgram/mL anti-DNP mouse IgE. The electronic impedance response of the cells were continued to be recorded for an additional 20 hours after which the media in the wells were aspirated and replaced with fresh serum free media. The cells were allowed to recover for 30 minutes and then treated with the 1 microgram/mL of the antigen, DNP-BSA. The electronic impedance response of the cells was measured for an additional 3 hours.
Approximately 14 hours after seeding the cells were incubated with 100 ng/mL anti-DNP IgE followed by application of 100 ng/mL DNP-BSA 24 hours later. Impedance measurements (indicated as Cell Index) were performed at 5 minute intervals post DNP-BSA application.
FIGS. 16A-B show IgE alone-mediated increase in mast cell-electrode impedance response and its effect on antigen-mediated activation step. (A) RBL-2H3 cells seeded on microelectronic sensor arrays were left untreated or treated with indicated concentration of anti-DNP IgE. The impedance value indicated as Cell Index was continuously monitored and recorded using a cell-substrate impedance monitoring system. […] The impedance value indicated as Cell Index was continuously monitored using the system. […]
RBL-2H3 cells were seeded in the 16X device chamber (depicted in FIG. 2) at 20,000 cells/well and the attachment and growth of the cells in the 37° C. tissue culture incubator were monitored in real-time using the cell-substrate monitoring system. […]
20,000 RBL-2H3 cells were seeded per well of a 16X microtiter device and monitored by the impedance measuring system. […] The cell-electrode impedance was continuously measured and the corresponding, time dependent Cell-Index values were derived and recorded. […]

[3] = system: RBL-2H3 mast cells; assay: Fluorescence microscopy of actin cytoskeleton (rhodamine-phalloidin); details: DNP-BSA cross-linking
Method: FIGS. 15A-B show correlation between cell-electrode impedance response of RBL-2H3 mast cells and cell morphological dynamics and mediator release. (A) RBL-2H3 mast cells were sensitized with 100 ng/mL IgE or treated with a control IgG antibody and subsequently activated with DNP-BSA. The cells were fixed with paraformaldehyde at the indicated time points, permeablized and stained with rhodamine-phalloidin. The cells were visualized and photographed with a Nikon E-400 immunoflourescence microscope equipped with a CCD camera. (B) RBL-2H3 cells were sensitized with IgE, activated by the addition of DNP-BSA.
RBL-2H3 cells were seeded in 16 well Lab-Tec chamber slides and allowed to attach and spread for 6 hours. The cells were stimulated with anti-DNP IgE at a final concentration of 100 ng/mL or a non-specific mouse IgG at 100 ng/mL and then 16 hours later, the media was aspirated, replaced with fresh media and treated with 100 ng/mL DNP-BSA for the indicated time and then fixed with 4 % parafarmaldehyde. The cells were washed 3X with PBS, permeablized in PBS containing 0.2% TX-100 and blocked in PBS containing 0.5 % BSA. The cells were then stained with rhodamine-phalloidin for 30 minutes, washed 3X with PBS and visualized and imaged using the tritc filter on a Nikon E400 epi-fluorescence microscope and Nikon ACT software. […]

[4] = Rattus norvegicus, RBL-2H3, mast cell activation by impedance, Bisindolylmaleimide N=3, SU6656 N=5, U73122 N=5, Piceatannol N=1, read-out: IC50±SD

## Oc1cc(O)cc(/C=C/c2ccc(O)c(O)c2)c1 [Piceatannol]
[1]; [4]
  IC50: 1000 nM

## CN(C)S(=O)(=O)c1ccc2c(c1)/C(=C/c1cc3c([nH]1)CCCC3)C(=O)N2 [SU6656]
[1]; [4]
  IC50: 5800 ± 3500 nM

## COc1ccc2c(c1)CC[C@@H]1[C@@H]2CC[C@]2(C)[C@@H](NCCCCCCN3C(=O)C=CC3=O)CC[C@@H]12 [U73122]
[1]; antigen-mediated RBL-2H3 activation, read-out: IC-50 value
  IC50: ~1000 nM
[1]; mast cell activation by impedance, Bisindolylmaleimide N=3, SU6656 N=5, U73122 N=5, Piceatannol N=1, read-out: IC50±SD
  IC50: 930 ± 600 nM

## DNP-BSA: multi-valent antigen DNP-BSA
[2]
  time of return to baseline: approximately 2.5 hours
  time to detectable impedance increase: ≤ 5 min
  time to maximal impedance increase: ≤ 30 min
[3]; printed as post IgE stimulation
  time at which extensive ruffling is apparent: 2.5 min
[3]; printed as post-IgE stimulation
  time of peak cytoskeletal reorganization: 30 to 45 min
